# Reference: PubChem BioAssay (NCI)
#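 Five concentrations, 48 hours, 96-well plates. The concentration for full growth arrest is given as TGI.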 Where a SMILES comes first, the peptide text is derived from it. The star is where a group is joined. Cbz = O=C(OCc1ccccc1)*; Boc = CC(C)(C)OC(=O)*; OSu = O=C1CCC(=O)N1O*; Bn = c1ccc(C*)cc1
# Experiments:
# Test in all cases: inhibition of tumour cell growth, NCI panel, 48 h
# [1] = test system: LOX IMVI melanoma
# [2] = test system: UO-31 renal
# [3] = test system: T-47D breast
# [4] = test system: 786-0 renal
# [5] = test system: HOP-62 NSCLC
# [6] = test system: HCT-15 colon
# [7] = test system: SF-268 CNS
# [8] = test system: NCI-H226 lung
# [9] = test system: SNB-19 CNS
# [10] = test system: NCI-H522 lung
# [11] = test system: COLO 205 colon
# [12] = test system: SF-295 CNS
# [13] = test system: HOP-92 NSCLC
# [14] = test system: SK-OV-3 ovarian
SMILES,TGI [1],TGI [2],TGI [3],TGI [4],TGI [5],TGI [6],TGI [7],TGI [8],TGI [9],TGI [10],TGI [11],TGI [12],TGI [13],TGI [14]
O=C(N=Nc1cccc(Cl)c1)NNc1cccc(Cl)c1,26.8 µM,45.5 µM,> 100 µM,28.4 µM,22.2 µM,75.7 µM,73.6 µM,> 100 µM,> 100 µM,42.6 µM,,,,
O=c1[nH]nc(Cc2ccccc2)n1/N=C\c1ccccc1,> 100 µM,> 100 µM,> 100 µM,> 100 µM,> 100 µM,> 100 µM,,> 100 µM,,> 100 µM,> 100 µM,> 100 µM,> 100 µM,
O=C(CSc1nc2[nH]ncc2c(=O)[nH]1)c1ccc(Cl)cc1,> 100 µM,> 100 µM,> 100 µM,> 100 µM,> 100 µM,> 100 µM,> 100 µM,> 100 µM,> 100 µM,> 100 µM,> 100 µM,> 100 µM,,> 100 µM
CC1(C)C(O)C[C@@H](O)[C@@]2(C)C1CC[C@]1(C)C2C[C@@H](O)[C@@H]2C([C@@]3(C)CC[C@@H](C(C)(C)O)O3)CCC21C (some centres not stated),23.2 µM,32.8 µM,,30.1 µM,30.3 µM,25.1 µM,32 µM,34.7 µM,30.4 µM,27.8 µM,30 µM,30.2 µM,23.5 µM,33.5 µM
CO[C@@H]1C=C[C@@]23c4cc5c(cc4C(=O)O[C@H]2CN(C)[C@H]3C1)OCO5,> 100 µM,> 100 µM,,> 100 µM,,,> 100 µM,,> 100 µM,> 100 µM,> 100 µM,> 100 µM,> 100 µM,> 100 µM
CN(N)c1cc(=O)[nH]c(=O)[nH]1,> 100 µM,,> 100 µM,> 100 µM,> 100 µM,> 100 µM,> 100 µM,> 100 µM,> 100 µM,> 100 µM,,> 100 µM,,> 100 µM
CCN1C(=O)C(C)S/C1=N\NC(=O)CSc1nc2ccccc2c(=O)n1CC (configuration not stated),> 100 µM,> 100 µM,> 100 µM,> 100 µM,> 100 µM,> 100 µM,> 100 µM,> 100 µM,> 100 µM,> 100 µM,> 100 µM,> 100 µM,,> 100 µM
N#Cc1c(N)[nH]c(=S)c(C#N)c1-c1ccccc1,> 100 µM,> 100 µM,> 100 µM,> 100 µM,> 100 µM,> 100 µM,> 100 µM,> 100 µM,> 100 µM,> 100 µM,,> 100 µM,,
COc1cc(C2C(C#N)=C(N)OC3=C2CCS(=O)(=O)c2ccc(C)cc23)cc(OC)c1OC (configuration not stated),> 100 µM,> 100 µM,> 100 µM,> 100 µM,> 100 µM,> 100 µM,> 100 µM,> 100 µM,> 100 µM,> 100 µM,> 100 µM,,> 100 µM,
CCOC(=O)C(C)NC(=O)C(C)NC(=O)C(C)NC(=O)C(C)NC(=O)C(C)NC(=O)OCc1ccccc1 (configuration not stated),> 100 µM,> 100 µM,> 100 µM,> 100 µM,> 100 µM,> 100 µM,> 100 µM,> 100 µM,> 100 µM,> 100 µM,> 100 µM,> 100 µM,,> 100 µM
O=C(O)c1ccc(NC(NC(=O)C(C(F)(F)F)C(F)(F)F)(C(F)(F)F)C(F)(F)F)cc1,> 100 µM,> 100 µM,> 100 µM,> 100 µM,,> 100 µM,> 100 µM,,> 100 µM,,> 100 µM,,,> 100 µM
CC(C)(C)Nc1noc(=O)n1C(C)(C)C,> 100 µM,> 100 µM,,> 100 µM,> 100 µM,> 100 µM,> 100 µM,> 100 µM,> 100 µM,> 100 µM,> 100 µM,> 100 µM,> 100 µM,> 100 µM
Cc1ccc(S(=O)(=O)N2CCSCCN(S(=O)(=O)c3ccc(C)cc3)CCN(S(=O)(=O)c3ccc(C)cc3)CC2)cc1,,> 100 µM,> 100 µM,73.9 µM,69 µM,,> 100 µM,> 100 µM,> 100 µM,,> 100 µM,> 100 µM,9.06 µM,86.7 µM
CC(C)=NNC=N/C(C#N)=C(\N)C#N,,> 100 µM,,> 100 µM,> 100 µM,> 100 µM,> 100 µM,> 100 µM,> 100 µM,> 100 µM,> 100 µM,> 100 µM,,> 100 µM
C=C(C)[C@@]1(OC(=O)c2cc([N+](=O)[O-])cc([N+](=O)[O-])c2)C[C@@H]2CCCC[C@@H]21,> 100 µM,> 100 µM,> 100 µM,> 100 µM,> 100 µM,> 100 µM,> 100 µM,> 100 µM,> 100 µM,> 100 µM,> 100 µM,> 100 µM,,> 100 µM
Nc1cc(N2CCCC2)nc(=O)n1-c1ccccc1,> 100 µM,,,> 100 µM,> 100 µM,> 100 µM,,> 100 µM,> 100 µM,> 100 µM,> 100 µM,> 100 µM,> 100 µM,
COc1cccc2c1OC(c1ccc(C#N)cc1)C([N+](=O)[O-])=C2 (configuration not stated),3.38 µM,3.01 µM,,11.9 µM,8.3 µM,3.11 µM,16.1 µM,9.75 µM,19.2 µM,0.412 µM,3.15 µM,18.5 µM,3.27 µM,7.67 µM
C[n+]1c(-c2ccc(/C=N/NC(=O)C(=O)N/N=C/c3ccc(-c4cn5ccsc5[n+]4C)cc3)cc2)cn2ccsc21,,> 100 µM,> 100 µM,> 100 µM,> 100 µM,> 100 µM,> 100 µM,,> 100 µM,> 100 µM,> 100 µM,> 100 µM,,> 100 µM

SMILES,TGI [1],TGI [2],TGI [3],TGI [4],TGI [5],TGI [6],TGI [7],TGI [8],TGI [9],TGI [10],TGI [11],TGI [12],TGI [13],TGI [14]
Cc1nnc2sc(NN)nn12,> 100 µM,> 100 µM,> 100 µM,> 100 µM,> 100 µM,> 100 µM,> 100 µM,> 100 µM,> 100 µM,> 100 µM,> 100 µM,> 100 µM,,> 100 µM
COc1ccc2cc(C(=O)O)ccc2c1OC,,> 100 µM,> 100 µM,> 100 µM,> 100 µM,> 100 µM,> 100 µM,> 100 µM,> 100 µM,> 100 µM,> 100 µM,> 100 µM,,> 100 µM
c1ccc([P+](Cc2ccccc2C[P+](c2ccccc2)(c2ccccc2)c2ccccc2)(c2ccccc2)c2ccccc2)cc1,> 100 µM,> 100 µM,> 100 µM,> 100 µM,> 100 µM,> 100 µM,> 100 µM,> 100 µM,> 100 µM,> 100 µM,> 100 µM,> 100 µM,,> 100 µM
CN(C)CCN=C1Nc2ccccc2C(=S)N2CSCC12 (configuration not stated),> 100 µM,> 100 µM,> 100 µM,> 100 µM,> 100 µM,> 100 µM,> 100 µM,> 100 µM,> 100 µM,> 100 µM,> 100 µM,> 100 µM,,> 100 µM
COC1=CCC=C(C[C@@H]2NCCc3cc(OC)c(OC)cc32)C1,> 100 µM,> 100 µM,,> 100 µM,> 100 µM,> 100 µM,> 100 µM,> 100 µM,> 100 µM,> 100 µM,> 100 µM,> 100 µM,> 100 µM,> 100 µM
CC(C)(C)OC(=O)NC(Cc1ccc(OCc2ccccc2)cc1)C(=O)NC(CCCCNC(=O)OCc1ccccc1)C(=O)ON1C(=O)CCC1=O (configuration not stated) (Boc-Tyr(Bn)-Lys(Cbz)-OSu; configuration not given here),,76.3 µM,,35.7 µM,42.8 µM,32 µM,,99.6 µM,35.3 µM,,72.1 µM,,,
O=C(O)c1cc(/C=C/c2cc(O)ccc2O)ccc1O,> 10 µM,> 10 µM,,> 10 µM,,> 10 µM,> 10 µM,> 10 µM,> 10 µM,> 10 µM,,> 10 µM,,
CC(SC(=S)N1CCOCC1)C(=O)Nc1nnc(-c2ccccc2)o1 (configuration not stated),> 100 µM,> 100 µM,> 100 µM,> 100 µM,> 100 µM,> 100 µM,,> 100 µM,> 100 µM,> 100 µM,> 100 µM,> 100 µM,,> 100 µM
CCCCC(Sc1cc(Cl)c(C)cc1S(=O)(=O)Nc1n[nH]c(N)n1)C(=O)OC (configuration not stated),> 10 µM,,> 10 µM,> 10 µM,> 10 µM,> 10 µM,> 10 µM,> 10 µM,> 10 µM,> 10 µM,> 10 µM,> 10 µM,,> 10 µM
COc1cc2cccc(N)c2cc1OC,> 100 µM,> 100 µM,> 100 µM,> 100 µM,> 100 µM,> 100 µM,> 100 µM,> 100 µM,> 100 µM,> 100 µM,> 100 µM,> 100 µM,,> 100 µM
CC(=O)Nc1ccc2[nH]c(-c3cccc(Cl)c3)cc(=O)c2c1,,,,> 100 µM,> 100 µM,> 100 µM,,,> 100 µM,> 100 µM,39.9 µM,,> 100 µM,68.5 µM
O=C(O)CCc1ccc2c(c1)C(=O)CC2,> 100 µM,> 100 µM,> 100 µM,> 100 µM,> 100 µM,> 100 µM,> 100 µM,> 100 µM,> 100 µM,> 100 µM,> 100 µM,> 100 µM,,> 100 µM
CC(C)(C)OC(=O)NCCc1cccc2c1oc1c(CCC(=O)O)cccc12,> 100 µM,> 100 µM,,> 100 µM,,> 100 µM,> 100 µM,> 100 µM,> 100 µM,> 100 µM,> 100 µM,> 100 µM,> 100 µM,> 100 µM
CC1Oc2c(c(=O)oc3ccccc23)[C@@]1(C)CC1C[C@H](C)C(=O)O1 (some centres not stated),> 100 µM,90.2 µM,> 100 µM,33.4 µM,> 100 µM,> 100 µM,42.8 µM,> 100 µM,> 100 µM,34.2 µM,> 100 µM,> 100 µM,,> 100 µM
COc1ccc(C(CC(=O)C(C)(C)CN2CCCCC2)SCCS(=O)(=O)O)cc1 (configuration not stated),,> 100 µM,,60.7 µM,> 100 µM,> 100 µM,,> 100 µM,> 100 µM,43.4 µM,> 100 µM,> 100 µM,47.2 µM,> 100 µM
Oc1ccc(N=C2CCC(=C(c3ccccc3)c3ccc(Nc4ccc(O)cc4)cc3)CC2)cc1,> 100 µM,> 100 µM,,> 100 µM,,> 100 µM,> 100 µM,> 100 µM,> 100 µM,> 100 µM,> 100 µM,> 100 µM,> 100 µM,> 100 µM
C=C[C@@H]1C[C@]2(C(=O)OC)Cc3nc4ccccc4nc3CC(C(=O)OC)=C2O1,> 100 µM,,> 100 µM,> 100 µM,> 100 µM,> 100 µM,> 100 µM,,> 100 µM,> 100 µM,> 100 µM,> 100 µM,,> 100 µM
CCc1c(Cc2[nH]c(Cc3[nH]c(C=O)c(C)c3CC)c(CC)c2CC)[nH]c(C=O)c1C,> 100 µM,> 100 µM,,> 100 µM,> 100 µM,> 100 µM,> 100 µM,> 100 µM,> 100 µM,> 100 µM,> 100 µM,> 100 µM,,> 100 µM
